# System: NIDD STZ rats
# Assay: Streptozotocin-induced non-insulin-dependent diabetes (NIDD) rat model: glycaemia, cholesterol, triglycerides
# Type: in vivo, male Wistar rats
# Details: for Cholesterol / Glycaemia / Triglycerides: STZ (45 mg/kg) diabetic male Wistar rats, oral treatment at the doses in Table 1, measured 23 days after STZ, mean ± SEM, 10 rats per group
# Experimental: Non-insulin-dependent diabetes (NIDD) is induced by injecting streptozotocin into male wistar rats. […] The procedure followed is as follows. […] Two weeks after this treatment, blood is taken and the glycaemia is measured. […] The animals then receive, orally, either metformin alone, or a fibrate alone, or a combination of the two in the doses indicated in Table 1 below. 23 days after the injection of streptozotocin, the animals are sacrificed and the following parameters are determined: glycaemia, cholesterol and triglycerides. […] The Student t test is carried out to evaluate the significance of the results obtained.
Compound,Cholesterol [g/L],Glycaemia [g/L],Triglycerides [g/L],Glycaemia (listed as bezafibrate) [g/L],Glycaemia (listed as metformin) [g/L],"Effects on the levels of cholesterol and of triglycerides when administered alone (metformin alone, in animals, such as in man)"
"CC(C)(Oc1ccc(CCNC(=O)c2ccc(Cl)cc2)cc1)C(=O)O [Bezafibrate, bezafibrate]",0.52 ± 0.05,2.20 ± 0.21,0.81 ± 0.11,2.20,–,–
"CCOC(=O)C(C)(C)Oc1ccc(Cl)cc1 [Clofibrate, clofibrate]",0.63 ± 0.03,2.58 ± 0.11,0.93 ± 0.11,–,–,–
"CC(C)OC(=O)C(C)(C)Oc1ccc(C(=O)c2ccc(Cl)cc2)cc1 [Fenofibrate, fenofibrate]",0.45 ± 0.02,–,0.61 ± 0.10,–,–,–
"CN(C)C(=N)N=C(N)N [Metformin, metformin]",0.61 ± 0.03,1.74 ± 0.14,0.85 ± 0.10,–,1.74,effects on decreasing the levels of cholesterol and of triglycerides
